One assay has as its system HL-60. Put plainly: Antiproliferative activity against human HL60 cells after 48 hrs by MTT assay. It counts as functional, cell-based. To be noted: HL-60, 48 h. A general note: Tetrazolium dyes change colour on reduction, which living cells bring about.
The test system of another assay is Jurkat. Put plainly: Antiproliferative activity against human Jurkat T cells after 48 hrs by MTT assay. In kind it is functional, cell-based.
The next assay concerns MDA-MB-231. Put plainly: Antiproliferative activity against human MDA-MB-231 cells after 48 hrs by MTT assay. In kind it is functional, cell-based. The conditions noted are these: MDA-MB-231, 48 h.
In the next assay the test system is MCF7. Put plainly: Antiproliferative activity against human MCF7 cells after 48 hrs by MTT assay. In kind it is functional, cell-based. The conditions noted are these: MCF7, 48 h.
A further assay relates to HCT-116. Put plainly: Antiproliferative activity against human HCT116 cells after 48 hrs by MTT assay. The conditions noted are these: HCT-116, 48 h. In kind it is functional, cell-based.
Another assay deals with Vero. Put plainly: Cytotoxicity against African green monkey Vero cells after 48 hrs by MTT assay. The conditions noted are these: Chlorocebus sabaeus. In kind it is cell-based.

In the case of `CC(C)(C)C(=O)N1[C@@H](COc2ccc([N+](=O)[O-])cc2)COC1(C)C`, the IC50 – broadly, the concentration that inhibits the measured activity by half – with HL-60 is above 50 µM; with Jurkat it was above 50 µM; in the assay with MDA-MB-231 it was above 50 µM; with MCF7 it was above 50 µM; with HCT-116, above 50 µM; in the assay with Vero it was above 100 µM.
Take `CC(C)(C)CC(=O)N1[C@@H](COc2ccc([N+](=O)[O-])cc2)COC1(C)C`: the IC50 is above 50 µM with HL-60; above 50 µM in the assay with Jurkat; above 50 µM in the assay on MDA-MB-231; above 50 µM with MCF7; above 50 µM in the assay on HCT-116; above 100 µM in the assay on Vero.
For `CN1CCN(C(=O)c2ccc(OC[C@H]3COC(C)(C)N3C(=O)OC(C)(C)C)cc2)CC1`, the IC50 in the assay on HL-60, in the assay with Jurkat, in the assay on MDA-MB-231, in the assay with MCF7 and with HCT-116 was above 50 µM in each case.
Take `CC(C)(C)OC(=O)N[C@H](CO)COc1ccc([N+](=O)[O-])cc1`: the half-maximal inhibitory concentration (IC50) was above 50 µM with HL-60; above 50 µM in the assay with MDA-MB-231; above 50 µM in the assay with MCF7; above 50 µM in the assay on HCT-116; above 100 µM in the assay with Vero.

For the origin of these results see ChEMBL document CHEMBL4118074, “Design, synthesis and structure-activity relationship studies of a novel focused library of 2,3,4-substituted oxazolidines with antiproliferative activity against cancer cell lines” (Eur J Med Chem, 2017).
